Source: patent US20040156802A1, “Cosmetics or external preparations for skin” (priority 2001, published 2004)
Where “and” joins values, the source holds several entries; their conditions need not be identical. Equal entries are not always repeated.

Key:
[1] = test system: rabbits (New Zealand White species, male); assay: Test on the primary irritation of the skin; type: in vivo, rabbit; settings: for Evaluation Value For irritation: alone, shaved rabbit back, blocked 24 hours; for effect on the primary irritation of the skin when used in combination with the irritant: in comparison with the irritant used singly, rabbit
Experimental: Each back portion of rabbits (New Zealand White species, male) was shaved and each of the test compounds was applied thereto. Each of the test compound-applied portions was blocked for 24 hours, After 24, 48, 72 and 168 hours from the time of applying the test compound, the judgments were conducted for the erythema and edema appeared on the test compound-applied portion based on their standards indicated in table 1. The average evaluation value in each time at which the judgment was conducted was calculated (the value obtained by dividing the combined value of the evaluation value for erythema and that for edema by the number of animal used in the test). In addition, the average evaluation value in each time at which the judgment was conducted was all added up and the total value was divided by the number of judgment (4 times) to make the evaluation value of the primary initation.

adult men [2] = assay: Test in human on function of inhibiting the irritation induced by an organic acid (solution B applied 4 minutes before glycolic acid solution A); type: in vivo; settings: glycolic acid concentration: 20%
Experimental: A series of tests were conducted by three adult men with respect to the function of inhibiting the irritation of the skin induced an organic acid. […] After all of the panelists washed their faces, solution B (or solution C) was applied to each right cheek (or each left cheek) of the their faces with a cotton bud. […] The irritation which each of the panelists felt at the solution-applied portion was recorded as the score every a minute after a minute from the time of applying the solution for 5 minutes based on its evaluation standards shown below. In addition, the function of the test compound (N, N′-diacetyl-L-cystine dimethyl ester) for inhibiting the irritation was judged based on the judging standards shown below.

an adult = assay: Test in human on function of inhibiting erythema and irritation (tape-stripped forearm, protopic ointment); type: in vivo; settings: skin where the barrier function was reduced by tape stripping (30 times)
Experimental: A series of tests were conducted by an adult With respect to the function of inhibiting the skin erythema and irritation induced by an organic acid. A test solution of N, N′-diacetyl-L-cystine dimethyl ester dissolved in a 25% aqueous ethanol solution (the concentration of N, N′-diacetyl-L-cystine dimethyl ester; 10%) was prepared. A solution of only the solvents was separately prepared as control solution. 30 Times of tape stripping were conducted on the inward portion of the panelist's forearm. To the portion which the tape stripping procedures have been conducted was applied {circle over (2)} test solution (or control solution) in addition to {circle over (1)} control (any solvent is not applied). After 4 minutes, to each of the portions ({circle over (1)} control portion (both forearms) {circle over (2)} test solution-applied portion and {circle over (3)} control solution-applied portion) was applied protopic ointment (tacrolimus: 1 mg/g), and the erytherma and irritation appeared on each of the portions after an additional 5 minutes were evaluated. […] In the skin where the barrier function of the skin was reduced by tape stripping (30 times), erytherma and irritation caused by the protopic ointment were suppressed by N, N′-diacetyl-L-cystine dimethyl ester.

adult men [3] = assay: Test in human on function of inhibiting the irritation induced by an organic acid (test solution applied 3 minutes before glycolic acid); type: in vivo; settings: glycolic acid concentration: 10%
Experimental: A series of tests were conducted by four adult men with respect to the function of inhibiting the irritation of the skin induced an organic acid. There were prepared a solution of glycolic acid dissolved in a 25% aqueous ethanol solution (the concentration of glycolic acid: 10%) and a test solution of N, N′-diacetyl-L-cystine dimethyl ester dissolved in the same solvents (the concentration of N, N′-diacetyl-L-cystine dimethyl ester: 10%). A solution of only the solvent was separately prepared as the control solution. After all of the panelists washed their faces, either test solution or control solution was applied to each right cheek of the their faces with a cotton bud. After additional 3 minutes, the glycolic acid solution was applied to the same portion as in the above and the irritation which each of the panelists felt was recorded as the score every a minute after a minute from the time of applying the glycolic acid solution for 10 minutes based on its evaluation standards shown below. […] After additional 3 minutes, the glycolic acid solution was applied to the same portion and the irritation which each of the panelists felt at the applied portion was similarly recorded as the score every a minute after a minute from the time of applying the glycolic acid solution for 10 minutes. […]

[4] = concentration 3%, erythema + edema averaged over 24, 48, 72 and 168 hours

## CC(O)C(=O)O (stereo not drawn) [Lactic acid]
[1]; concentration 70%, erythema + edema averaged over 24, 48, 72 and 168 hours
  Evaluation Value For irritation: 1.4

## COC(=O)[C@H](CSSC[C@H](NC(C)=O)C(=O)OC)NC(C)=O [N,N′-diacetyl-L-cystine dimethyl ester]
Adult men [2]
  inhibitory function in human toward irritation caused by glycolic acid: exhibited inhibitory function
[1]
  effect on the primary irritation of the skin when used in combination with the irritant: mitigates the primary irritation of the skin
An adult
  erythema and irritation caused by the protopic ointment: suppressed
Adult men [3]
  inhibitory function in human toward irritation caused by glycolic acid: exhibited inhibitory function

## CCCCCCCC(=O)N[C@@H](CSSC[C@H](NC(=O)CCCCCCC)C(=O)OC)C(=O)OC [N,N′-dioctanoyl-L-cystine dimethyl ester]
[1]
  effect on the primary irritation of the skin when used in combination with the irritant: mitigates the primary irritation of the skin

## CCCCCCCCCCCCOS(=O)(=O)[O-].[Na+] [Sodium lauryl sulfate]
[1]; concentration 5%, erythema + edema (each 0-4) averaged over judgments at 24, 48, 72 and 168 hours, sulfate
  Evaluation Value For irritation: 6.6 and 6.4

## CCCCCCCCCCCCCCCCCC[N+](C)(C)C.[Cl-] [Stearyl trimethyl ammonium chloride]
[1]; [4]
  Evaluation Value For irritation: 3.7

## Benzalkonium chloride
[1]; [4]
  Evaluation Value For irritation: 5.3
